Source: patent publication US9695154B2, “Heteroaryl inhibitors of sumo activating enzyme” (MILLENNIUM PHARMACEUTICALS, INC., priority 2013, dated 2017)

Target: T1, recombinant human SAE enzyme (Homo sapiens, UniProt Q9UBT2)
T1 sequence (Q9UBT2 1-640): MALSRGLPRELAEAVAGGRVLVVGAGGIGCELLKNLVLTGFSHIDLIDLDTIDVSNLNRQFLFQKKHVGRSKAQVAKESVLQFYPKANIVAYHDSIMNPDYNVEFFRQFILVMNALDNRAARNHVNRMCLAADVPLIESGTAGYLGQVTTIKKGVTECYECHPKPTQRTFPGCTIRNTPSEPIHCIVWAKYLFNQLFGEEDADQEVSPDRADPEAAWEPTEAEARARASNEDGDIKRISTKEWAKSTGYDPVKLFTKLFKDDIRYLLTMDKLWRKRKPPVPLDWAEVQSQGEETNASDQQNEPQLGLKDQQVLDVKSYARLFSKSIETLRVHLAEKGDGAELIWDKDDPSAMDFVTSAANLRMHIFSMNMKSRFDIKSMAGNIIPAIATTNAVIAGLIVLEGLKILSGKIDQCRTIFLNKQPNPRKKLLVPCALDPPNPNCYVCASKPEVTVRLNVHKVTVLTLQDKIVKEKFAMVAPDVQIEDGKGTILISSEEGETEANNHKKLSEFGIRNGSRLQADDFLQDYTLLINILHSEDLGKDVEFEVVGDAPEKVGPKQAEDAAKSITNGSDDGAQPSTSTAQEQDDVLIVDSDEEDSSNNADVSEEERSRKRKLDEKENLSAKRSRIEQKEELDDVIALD
T1 sequence (Q9UBE0 1-346 partner): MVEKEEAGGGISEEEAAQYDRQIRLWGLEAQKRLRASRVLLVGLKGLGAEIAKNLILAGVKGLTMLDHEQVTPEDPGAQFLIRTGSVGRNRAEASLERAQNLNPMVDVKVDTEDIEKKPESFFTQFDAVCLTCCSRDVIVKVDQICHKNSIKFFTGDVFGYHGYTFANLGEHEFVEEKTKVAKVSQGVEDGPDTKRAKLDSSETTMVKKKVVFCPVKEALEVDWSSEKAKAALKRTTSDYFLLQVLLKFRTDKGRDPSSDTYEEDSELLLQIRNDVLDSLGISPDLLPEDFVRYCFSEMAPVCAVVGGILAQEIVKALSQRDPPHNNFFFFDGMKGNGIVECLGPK
Assay: SAE HTRF Enzyme Assay
Format: biochemical
Settings: for IC50: class symbols A-C; for inhibition at 0.111 µM / Percent Inhibition: compound concentration 0.111 μM; for inhibition at 0.111 µM: read-out: Percent Inhibition; for Percent Inhibition: 0.111 µM
Procedure: The SAE enzymatic reaction totals 50 μl and contains 50 mM HEPES Hemisodium (pH 7.5), 0.05% BSA, 5 mM MgCl2, 0.5 μM ATP, 250 μM GSH, 0.01 μM Ubc9-GST, 0.125 μM Sumo-Flag and 0.11 nM recombinant human SAE enzyme. The enzymatic reaction mixture with and without inhibitor, Is incubated at 24° C. for 105 min in a 384-well plate before termination with […] of Stop/Detection buffer (0.1M HEPES Hemisodium pH 7.5, 0.05% Tween20, 20 mM EDTA, 410 mM KF, 0.53 nM Europium-Cryptate labeled monoclonal anti-Flag M2 Antibody (CisBio International) and 8.125 μg/ml PHYCOLINK goat anti-GST allophycocyanin (XL-APC) antibody (Prozyme)). After incubation for 2 hours at 24° C., quantification of FRET is performed on the Pherostar™ (BMG Labtech). Percentage inhibition values at a single concentration or enzyme inhibition (IC50) values are determined from those curves. One skilled in the art will appreciate that the values generated either as percentage inhibition at a single concentration or IC50 values are subject to experimental variation.

## CC(c1ccc(C(F)(F)F)o1)n1ccc(C(=O)c2cncnc2N[C@@H]2C[C@H](COS(N)(=O)=O)[C@@H](O)[C@@H]2F)c1 (single isomer, unassigned) [Compound I-304, [(1R,2R,3R,4R)-3-fluoro-2-hydroxy-4-({5-[(1-{(1S)-1-[5-(trifluoromethyl)-2-furyl]ethyl}-1H-pyrrol-3-yl)carbonyl]pyrimidin-4-yl}amino)cyclopentyl]methyl sulfamate or [(1R,2R,3R,4R)-3-fluoro-2-hydroxy-4-({5-[(1-{(1R)-1-[5-(trifluoromethyl)-2-furyl]ethyl}-1H-pyrrol-3-yl)carbonyl]pyrimidin-4-yl}amino)cyclopentyl]methyl sulfamate]
  IC50: 10 to 100 nM
  inhibition at 0.111 µM: 91%

## CC(c1cccc(Br)c1)n1ccc(C(=O)c2cncnc2N[C@@H]2C[C@H](COS(N)(=O)=O)[C@@H](O)C2)n1 (single isomer, unassigned) [Compound I-315, [(1R,2S,4R)-4-{[5-({1-[(1S)-1-(3-bromophenyl)ethyl]-1H-pyrazol-3-yl}carbonyl)pyrimidin-4-yl]amino}-2-hydroxycyclopentyl]methyl sulfamate or [(1R,2S,4R)-4-{[5-({1-[(1R)-1-(3-bromophenyl)ethyl]-1H-pyrazol-3-yl}carbonyl)pyrimidin-4-yl]amino}-2-hydroxycyclopentyl]methyl sulfamate]
  IC50: < 10 nM
  inhibition at 0.111 µM: 99%

## NS(=O)(=O)OC[C@H]1C[C@@H](Nc2ncncc2C(=O)c2ccn(C3CCc4ccccc43)n2)[C@H](O)[C@@H]1O (single isomer, unassigned) [Compound I-323, {(1R,2R,3S,4R)-4-[(5-{[1-((1R)-2,3-dihydro-1H-inden-1-yl)-1H-pyrazol-3-yl]carbonyl}pyrimidin-4-yl)amino]-2,3-dihydroxycyclopentyl}methyl sulfamate or {(1R,2R,3S,4R)-4-[(5-{[1-((1S)-2,3-dihydro-1H-inden-1-yl)-1H-pyrazol-3-yl]carbonyl}pyrimidin-4-yl)amino]-2,3-dihydroxycyclopentyl}methyl sulfamate]
  IC50: 10 to 100 nM
  inhibition at 0.111 µM: 82%

## CC(c1ccc(Cl)o1)n1ccc(C(=O)c2cncnc2N[C@@H]2C[C@H](COS(N)(=O)=O)[C@@H](O)[C@@H]2F)c1 (single isomer, unassigned) [Compound I-350, [(1R,2R,3R,4R)-4-{[5-({1-[(1S)-1-(5-chloro-2-furyl)ethyl]-1H-pyrrol-3-yl}carbonyl)pyrimidin-4-yl]amino}-3-fluoro-2-hydroxycyclopentyl]methyl sulfamate or [(1R,2R,3R,4R)-4-{[5-({1-[(1R)-1-(5-chloro-2-furyl)ethyl]-1H-pyrrol-3-yl}carbonyl)pyrimidin-4-yl]amino}-3-fluoro-2-hydroxycyclopentyl]methyl sulfamate]
  IC50: < 10 nM
  inhibition at 0.111 µM: 96%

## CC(c1ccccc1)n1ccc(C(=O)c2cncnc2N[C@@H]2C[C@H](COS(N)(=O)=O)[C@@H](O)[C@H]2O)n1 (single isomer, unassigned) [Compound I-351, {(1R,2R,3S,4R)-2,3-dihydroxy-4-[(5 -{[1-((1S)-1-phenylethyl)-1H-pyrazol-3-yl]carbonyl}pyrimidin-4-yl)amino]cyclopentyl}methyl sulfamate or {(1R,2R,3S,4R)-2,3-dihydroxy-4-[(5-{[1-((1R)-1-phenylethyl)-1H-pyrazol-3-yl]carbonyl}pyrimidin-4-yl)amino]cyclopentyl}methyl sulfamate]
  IC50: < 10 nM
  inhibition at 0.111 µM: 97%

## NS(=O)(=O)OC[C@H]1C[C@@H](Nc2ncncc2C(=O)c2ccn(C3CCc4ccccc43)n2)[C@H](O)[C@@H]1O (single isomer, unassigned) [Compound I-353, {(1R,2R,3S,4R)-4-[(5-{[1-((1R)-2,3-dihydro-1H-inden-1-yl)-1H-pyrazol-3-yl]carbonyl}pyrimidin-4-yl)amino]-2,3-dihydroxycyclopentyl}methyl sulfamate or {(1R,2R,3S,4R)-4-[(5-{[1-((1S)-2,3-dihydro-1H-inden-1-yl)-1H-pyrazol-3-yl]carbonyl}pyrimidin-4-yl)amino]-2,3-dihydroxycyclopentyl}methyl sulfamate]
  IC50: 10 to 100 nM
  Percent Inhibition: 90%

## CC(c1ccc(Cl)o1)n1ccc(C(=O)c2cncnc2N[C@@H]2C[C@H](COS(N)(=O)=O)[C@@H](O)C2)n1 (single isomer, unassigned) [Compound I-354, [(1R,2S,4R)-4-{[5-({1-[(1 S)-1-(5-chloro-2-furyl)ethyl]-1H-pyrazol-3-yl}carbonyl)pyrimidin-4-yl]amino}-2-hydroxycyclopentyl]methyl sulfamate or [(1R,2S,4R)-4-{[5-({1-[(1R)-1-(5-chloro-2-furyl)ethyl]-1H-pyrazol-3-yl}carbonyl)pyrimidin-4-yl]amino}-2-hydroxycyclopentyl]methyl sulfamate]
  IC50: 10 to 100 nM
  inhibition at 0.111 µM: 79%

## C#Cc1cccc([C@H](C)n2ccc(C(=O)c3cncnc3N[C@@H]3C[C@H](COS(N)(=O)=O)[C@@H](O)C3)n2)c1 (single isomer, unassigned) [Compound I-355]
  IC50: < 10 nM
  inhibition at 0.111 µM: 99%

## CCC(c1cccc(Br)c1)n1ccc(C(=O)c2cncnc2N[C@@H]2C[C@H](COS(N)(=O)=O)[C@@H](O)[C@@H]2F)c1 (single isomer, unassigned) [Compound I-356, [(1R,2R,3R,4R)-4-{[5-({1-[(1S)-1-(3-bromophenyl)propyl]-1H-pyrrol-3-yl}carbonyl)pyrimidin-4-yl]amino}-3-fluoro-2-hydroxycyclopentyl]methyl sulfamate or [(1R,2R,3R,4R)-4-{[5-({1-[(1R)-1-(3-bromophenyl)propyl]-1H-pyrrol-3-yl}carbonyl)pyrimidin-4-yl]amino}-3-fluoro-2-hydroxycyclopentyl]methyl sulfamate]
  IC50: 10 to 100 nM
  Percent Inhibition: 85%

## CC(c1ccc(C(F)(F)F)o1)n1ccc(C(=O)c2cncnc2N[C@@H]2C[C@H](COS(N)(=O)=O)[C@@H](O)[C@@H]2F)c1 (single isomer, unassigned) [Compound I-357, [(1R,2R,3R,4R)-3-fluoro-2-hydroxy-4-({5-[(1-{(1S)-1-[5-(trifluoromethyl)-2-furyl]ethyl}-1H-pyrrol-3-yl)carbonyl]pyrimidin-4-yl}amino)cyclopentyl]methyl sulfamate or [(1R,2R,3R,4R)-3-fluoro-2-hydroxy-4-({5-[(1-{(1R)-1-[5-(trifluoromethyl)-2-furyl]ethyl}-1H-pyrrol-3-yl)carbonyl]pyrimidin-4-yl}amino)cyclopentyl]methyl sulfamate]
  IC50: < 10 nM
  Percent Inhibition: 100%

## CC(c1cccc(Br)c1)n1ccc(C(=O)c2cncnc2N[C@@H]2C[C@H](COS(N)(=O)=O)[C@@H](O)C2)n1 (single isomer, unassigned) [Compound I-358, [(1R,2S,4R)-4-{[5-({1-[(1S)-1-(3-bromophenyl)ethyl]-1H-pyrazol-3-yl}carbonyl)pyrimidin-4-yl]amino}-2-hydroxycyclopentyl]methyl sulfamate or [(1R,2S,4R)-4-{[5-({1-[(1R)-1-(3-bromophenyl)ethyl]-1H-pyrazol-3-yl}carbonyl)pyrimidin-4-yl]amino}-2-hydroxycyclopentyl]methyl sulfamate]
  IC50: < 10 nM
  Percent Inhibition: 95%

## NS(=O)(=O)OC[C@H]1C[C@@H](Nc2ncncc2C(=O)c2ccn(CC3CC3c3ccccc3)c2)[C@@H](F)[C@@H]1O (single isomer, unassigned) [Compound I-359, [(1R,2R,3R,4R)-3-fluoro-2-hydroxy-4-{[5-({1-[(1R,2R)-(2-phenylcyclopropyl)methyl]-1H-pyrrol-3-yl}carbonyl)pyrimidin-4-yl]amino}cyclopentyl]methyl sulfamate or [(1R,2R,3R,4R)-3-fluoro-2-(hydroxy-4-{[5-({1-[(1S,2S)-(2-phenylcyclopropyl)methyl]-1H-pyrrol-3-yl}carbonyl)pyrimidin-4-yl]amino}cyclopentyl]methyl sulfamate]
  IC50: 10 to 100 nM
  Percent Inhibition: 68%
